This is an account of results in patent US6689883B1, “Substituted pyridines and pyridazines with angiogenesis inhibiting activity” (Bayer Pharmaceuticals Corporation, priority 1999, dated 2004).

The assay addresses T1, cytosolic kinase domain of KDR kinase (Homo sapiens, UniProt P35968).
T1 construct: The cytosolic kinase domain of KDR kinase was expressed as a 6His fusion protein in Sf9 insect cells; 6His; made in house; host or cells: Sf9 insect cells
Kind of assay: KDR Assay (ELISA, poly(Glu4;Tyr1) phosphorylation). The class given is biochemical. As to conditions: 3.3 μM ATP, 60 minutes at room temperature. The procedure: The cytosolic kinase domain of KDR kinase was expressed as a 6His fusion protein in Sf9 insect cells. The KDR kinase domain fusion protein was purified over a Ni++ chelating column. Ninety-six well ELISA plates were coated with 5 μg poly(Glu4;Tyr1) (Sigma Chemical Co., St Louis, Mo.) in 100 μl HEPES buffer (20 mM HEPES, pH 7.5, 150 mM NaCl, 0.02% Thimerosal) at 4° overnight. Before use, the plate was washed with HEPES, NaCl buffer and the plates were blocked with 1% BSA, 0.1% Tween 20 in HEPES, NaCl buffer.
Test compounds were serially diluted in 100% DMSO from 4 mM to 0.12 μM in half-log dilutions. These dilutions were further diluted twenty fold in H2O to obtain compound solutions in 5% DMSO. Following loading of the assay plate with 85 μl of assay buffer (20 mM HEPES, pH 7.5, 100 mM KCl, 10 mM MgCl2, 3 mM MnCl2, 0.05% glycerol, 0.005% Triton X-100, 1 mM-mercaptoethanol, with or without 3.3 μM ATP), 5 μl of the diluted compounds were added to a final assay volume of 100 μl. Final concentrations were between 10 μM, and 0.3 nM in 0.25% DMSO. The assay was initiated by the addition of 10 μl (30 ng) of KDR kinase domain.
The assay was incubated with test compound or vehicle alone with gentle agitation at room temperature for 60 minutes. The wells were washed and phosphotyrosines (PY) were probed with an anti-phosphotyrosine (PY), mAb clone 4G10 (Upstate Biotechnology, Lake Placid, N.Y.). PY/anti-PY complexes were detected with an anti-mouse IgG/HRP conjugate (Amersham International plc, Buckinghamshire, England). Phosphotyrosine was quantitated by incubating with 100 μl 3,3′,5,5′tetramethylbenzidine solution (Kirkegaard and Perry, TMB Microwell 1 Component peroxidase substrate). Color development was arrested by the addition of 100 μl 1% HCl-based stop solution (Kirkegaard and Perry, TMB 1 Component Stop Solution).
Optical densities were determined spectrophotometrically at 450 nm in a 96-well plate reader, SpectraMax 250 (Molecular Devices). Background (no ATP in assay) OD values were subtracted from all ODs and the percent inhibition was calculated according to the equation: [formula]
(In general: ELISA stands for enzyme-linked immunosorbent assay.)

T1 sequence (P35968 834-1162 limits assumed): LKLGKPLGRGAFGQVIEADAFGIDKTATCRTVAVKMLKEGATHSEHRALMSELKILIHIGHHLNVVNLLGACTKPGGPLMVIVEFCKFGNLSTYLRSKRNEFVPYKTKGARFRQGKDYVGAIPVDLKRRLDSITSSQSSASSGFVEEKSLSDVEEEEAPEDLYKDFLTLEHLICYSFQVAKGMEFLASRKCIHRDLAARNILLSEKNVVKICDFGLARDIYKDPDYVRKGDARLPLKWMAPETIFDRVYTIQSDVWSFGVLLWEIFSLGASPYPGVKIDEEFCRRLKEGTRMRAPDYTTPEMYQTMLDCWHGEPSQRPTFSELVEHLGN

For orientation: IC50 means the concentration that gives 50% inhibition. Lower therefore signals inhibition by little substance. Take `Clc1ccc(Nc2ncc(Sc3ccncc3)c3ccccc23)cc1` [Example 1, 1-(4-chlorophenylamino)-4-(4-pyridylthio)isoquinoline]: the IC50 was no more than 100 nM.
Then `Clc1ccc(Nc2ncc(Cc3ccncc3)c3ccccc23)cc1` [Example 4, 1-(4-chlorophenylamino)-4-(4-pyridylmethyl)isoquinoline], with no more than 100 nM.
For `Cc1ccc(Nc2ncc(Cc3ccncc3)c3ccccc23)cc1F` [Example 7, 1-(3-fluoro-4-methylphenylamino)-4-(4-pyridylmethyl)-isoquinoline] the value was 100 to 1000 nM.
For `NC(=O)c1cc(Cc2cnc(Nc3ccc(Cl)cc3)c3ccccc23)ccn1` [Example 12, 1-(4-chlorophenylamino)-4-(2-aminocarbonyl-4-pyridylmethyl)isoquinoline] the value was no more than 100 nM; for `CNC(=O)c1cc(Cc2cnc(Nc3ccc(Cl)cc3)c3ccccc23)ccn1` [Example 13, 1-(4-chlorophenylamino)-4-(2-methylaminocarbonyl-4-pyridylmethyl)isoquinoline], no more than 100 nM; for `NC(=O)c1cc(COc2nnc(Nc3ccc(Cl)cc3)c3ccoc23)ccn1` [Example 16, 4-(4-chlorophenylamino)-7-(2-aminocarbonyl-4-pyridylmethoxy)furo-[2,3-d]pyridazine], no more than 100 nM.
For the molecule `Clc1ccc(Nc2nnc(Nc3ccc4ncsc4c3)c3sccc23)cc1` [Example 17, 4-(4-chlorophenylamino)-7-(benzothiazol-6-ylamino)thieno[2,3-d]pyridazine], the IC50 is no more than 100 nM.
Then `Brc1ccc2c(c1)CCN2c1nnc(OCc2ccncc2)c2occc12` [Example 19, 4-(5-bromoindolin-1-yl)-7-(4-pyridylmethoxy)furo[2,3-d]pyridazine], with no more than 100 nM; and `CNC(=O)c1cc(COc2nnc(Nc3ccc(OC)cc3)c3ccoc23)ccn1` [Example 20, 4-(4-methoxyphenylamino)-7-(2-methylaminocarbonyl-4-pyridylmethoxy)furo-[2,3-d]pyridazine], with no more than 100 nM.
In the case of `COc1ccc(Nc2nnc(OCc3ccnc(C(N)=O)c3)c3occc23)cc1` [Example 22, 4-(4-methoxyphenylamino)-7-(2-aminocarbonyl4-pyridylmethoxy)furo-[2,3-d]pyridazine], the IC50 is no more than 100 nM.
Then `c1cc2c(Nc3ccc4nn[nH]c4c3)nnc(Nc3ccc4nn[nH]c4c3)c2s1` [Example 26], with greater than 1000 nM; and `c1cc2c(Nc3ccc4nn[nH]c4c3)nnc(Nc3ccc4nn[nH]c4c3)c2o1` [Example 29], with greater than 1000 nM.
Then `c1cc2c(Nc3ccc4[nH]ncc4c3)nnc(Nc3ccc4[nH]ncc4c3)c2o1` [Example 30], with greater than 1000 nM; and `c1nc2c(Nc3ccc4nn[nH]c4c3)nnc(Nc3ccc4nn[nH]c4c3)c2[nH]1` [Example 31], with greater than 1000 nM; and `c1nc2c(Nc3ccc4[nH]ncc4c3)nnc(Nc3ccc4[nH]ncc4c3)c2[nH]1` [Example 32], with greater than 1000 nM.
As to `c1nc2c(Nc3ccc4ncsc4c3)nnc(Nc3ccc4ncsc4c3)c2[nH]1` [Example 33], the IC50 was greater than 1000 nM.
For `CNC(=O)c1cc(COc2nnc(Nc3ccc(F)cc3)c3ccoc23)ccn1` [Example 37] the value was no more than 100 nM; for `CNC(=O)c1cc(COc2nnc(Nc3ccc(Br)cc3)c3ccoc23)ccn1` [Example 38], no more than 100 nM; for `CNC(=O)c1cc(COc2nnc(Nc3ccc(C)cc3)c3ccoc23)ccn1` [Example 39], no more than 100 nM.
For `CNC(=O)c1cc(COc2nnc(Nc3cccc(C)c3)c3ccoc23)ccn1` [Example 40] the value was no more than 100 nM; for `CNC(=O)c1cc(COc2nnc(Nc3ccc(N(C)C)cc3)c3ccoc23)ccn1` [Example 41], greater than 1000 nM.
Then `CNC(=O)c1cc(COc2nnc(Nc3ccc(C(F)(F)F)cc3)c3ccoc23)ccn1` [Example 42], with no more than 100 nM; and `CNC(=O)c1cc(COc2nnc(Nc3ccc(OC(F)(F)F)cc3)c3ccoc23)ccn1` [Example 43], with no more than 100 nM; and `CNC(=O)c1cc(COc2nnc(Nc3ccc(OC)c(Cl)c3)c3ccoc23)ccn1` [Example 44], with no more than 100 nM.
`CNC(=O)c1cc(COc2nnc(Nc3ccc(F)c(F)c3)c3ccoc23)ccn1` [Example 47] had an IC50 of no more than 100 nM.
Then `CNC(=O)c1cc(COc2nnc(Nc3ccc4c(c3)CCC4)c3ccoc23)ccn1` [Example 49], with no more than 100 nM.
Regarding `CNC(=O)c1cc(COc2nnc(Nc3cccc(OC)c3)c3ccoc23)ccn1` [Example 51], the IC50 is no more than 100 nM.
For `CNC(=O)c1cc(COc2nnc(Nc3ccc4c(c3)OCO4)c3ccoc23)ccn1` [Example 52] the value was no more than 100 nM; for `CNC(=O)c1cc(COc2nnc(Nc3ccc(Cl)c(Cl)c3)c3ccoc23)ccn1` [Example 53], no more than 100 nM; for `CNC(=O)c1cc(COc2nnc(Nc3cc(C)cc(C)c3)c3ccoc23)ccn1` [Example 54], no more than 100 nM.
Then `COc1ccc(Nc2nnc(OCc3ccncc3)c3occc23)cc1` [Example 56], with no more than 100 nM.
For `CNC(=O)c1cc(COc2nnc(Nc3ccc(O)cc3)c3ccoc23)ccn1` [Example 57] the value was no more than 100 nM; for `CNC(=O)c1cc(COc2nnc(Nc3ccccc3)c3ccoc23)ccn1` [Example 59], no more than 100 nM; for `CNC(=O)c1cc(COc2nnc(Nc3ccc(C)c(OC)c3)c3ccoc23)ccn1` [Example 60], no more than 100 nM.
With `CNC(=O)c1cc(COc2nnc(Nc3ccc4sc(C)nc4c3)c3ccoc23)ccn1` [Example 62], the IC50 is no more than 100 nM.
Then `CNC(=O)c1cc(COc2nnc(Nc3ccc4c(c3)CCO4)c3ccoc23)ccn1` [Example 65], with no more than 100 nM; and `CNC(=O)c1cc(COc2nnc(Nc3ccc4c(c3)CCO4)c3ccsc23)ccn1` [Example 66], with no more than 100 nM; and `CNC(=O)c1cc(COc2nnc(Nc3cccc(C)c3)c3ccsc23)ccn1` [Example 68], with no more than 100 nM.
For `CNC(=O)c1cc(COc2nnc(Nc3ccc(OC)cc3)c3ccsc23)ccn1` [Example 69] the value was no more than 100 nM; for `CNC(=O)c1cc(COc2nnc(Nc3ccc(OC(F)(F)F)cc3)c3ccsc23)ccn1` [Example 70], no more than 100 nM; for `CNC(=O)c1cc(COc2nnc(Nc3ccc(C(F)(F)F)cc3)c3ccsc23)ccn1` [Example 71], no more than 100 nM.
For the molecule `CNC(=O)c1cc(COc2nnc(Nc3ccc(Br)cc3)c3ccsc23)ccn1` [Example 72], the concentration for half-maximal inhibition (IC50) is no more than 100 nM.
Then `CNC(=O)c1cc(COc2nnc(Nc3ccc4c(c3)CCC4)c3ccsc23)ccn1` [Example 73], with no more than 100 nM; and `CNC(=O)c1cc(COc2nnc(Nc3ccc4c(c3)OCO4)c3ccsc23)ccn1` [Example 74], with no more than 100 nM; and `c1nc2ccc(Nc3nnc(Nc4ccc5ncsc5c4)c4sccc34)cc2s1` [Example 75], with no more than 100 nM.
Then `Cc1ccc(Nc2nnc(Nc3ccc4ncsc4c3)c3sccc23)c(C)c1` [Example 78], with no more than 100 nM; and `COc1cc(Nc2nnc(Nc3ccc4ncsc4c3)c3sccc23)cc(OC)c1OC` [Example 80], with greater than 1000 nM.
For `CN(C)C(=O)c1cc(COc2nnc(Nc3ccc(Cl)cc3)c3ccoc23)ccn1` [Example 81] the value was greater than 1000 nM; for `O=C(NC1CC1)c1cc(COc2nnc(Nc3ccc(Cl)cc3)c3ccoc23)ccn1` [Example 82B], no more than 100 nM.
Molecule `O=C(NCCO)c1cc(COc2nnc(Nc3ccc(Cl)cc3)c3ccoc23)ccn1` [Example 82C] returned an IC50 of no more than 100 nM.
In the case of `CCNC(=O)c1cc(COc2nnc(Nc3ccc(Cl)cc3)c3ccoc23)ccn1` [Example 82D], the IC50 is no more than 100 nM.
Then `c1ccc2c(Nc3ccc4nn[nH]c4c3)nnc(Nc3ccc4nn[nH]c4c3)c2c1` [Example 94], with greater than 1000 nM; and `Brc1ccc2c(c1)CCN2c1nnc(Nc2ccc3ncsc3c2)c2ccccc12` [Example 97], with no more than 100 nM; and `FC1(F)Oc2ccc(Nc3nnc(Nc4ccc5ncsc5c4)c4ccccc34)cc2O1` [Example 98], with no more than 100 nM.
